PubChem BioAssay (NCI)
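The compound was tested at five concentrations on cells cultured in 96-well plates, with a 48-hour exposure period. At the TGI there is no net growth.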

How the values were obtained:
Assay in all cases: inhibition of tumour cell growth, NCI panel, 48 h
HS 578T breast = system: HS 578T breast
ACHN renal = system: ACHN renal
A498 renal = system: A498 renal
HOP-62 NSCLC = system: HOP-62 NSCLC
CAKI-1 renal = system: CAKI-1 renal
KM12 colon = system: KM12 colon
RXF 393 renal = system: RXF 393 renal
NCI-H226 lung = system: NCI-H226 lung
UACC-257 melanoma = system: UACC-257 melanoma
MDA-N = system: MDA-N
NCI-H460 lung = system: NCI-H460 lung
M14 melanoma = system: M14 melanoma
U251 CNS = system: U251 CNS
MDA-MB-435 = system: MDA-MB-435
HCC-2998 colon = system: HCC-2998 colon
HCT-116 colon = system: HCT-116 colon
HT29 colon = system: HT29 colon
SNB-75 CNS = system: SNB-75 CNS
K-562 leukemia = system: K-562 leukemia
UO-31 renal = system: UO-31 renal
LOX IMVI melanoma = system: LOX IMVI melanoma
HL-60(TB) leukemia = system: HL-60(TB) leukemia
MDA-MB-231 breast = system: MDA-MB-231 breast
MCF7 breast = system: MCF7 breast
TK-10 renal = system: TK-10 renal
SK-OV-3 ovarian = system: SK-OV-3 ovarian
OVCAR-4 ovarian = system: OVCAR-4 ovarian
OVCAR-5 ovarian = system: OVCAR-5 ovarian
SN12C renal = system: SN12C renal
EKVX NSCLC = system: EKVX NSCLC
IGROV1 ovarian = system: IGROV1 ovarian
MALME-3M melanoma = system: MALME-3M melanoma
SW-620 colon = system: SW-620 colon
SR leukemia = system: SR leukemia
A549 NSCLC = system: A549 NSCLC
SK-MEL-2 melanoma = system: SK-MEL-2 melanoma
CCRF-CEM leukemia = system: CCRF-CEM leukemia
SF-295 CNS = system: SF-295 CNS
COLO 205 colon = system: COLO 205 colon
NCI-H522 lung = system: NCI-H522 lung
PC-3 prostate = system: PC-3 prostate
SK-MEL-28 melanoma = system: SK-MEL-28 melanoma
786-0 renal = system: 786-0 renal
SK-MEL-5 melanoma = system: SK-MEL-5 melanoma
SNB-19 CNS = system: SNB-19 CNS
HOP-92 NSCLC = system: HOP-92 NSCLC
SF-539 CNS = system: SF-539 CNS
NCI/ADR-RES ovarian = system: NCI/ADR-RES ovarian
OVCAR-8 ovarian = system: OVCAR-8 ovarian
RPMI-8226 leukemia = system: RPMI-8226 leukemia
NCI-H23 lung = system: NCI-H23 lung
UACC-62 melanoma = system: UACC-62 melanoma
OVCAR-3 ovarian = system: OVCAR-3 ovarian
MOLT-4 leukemia = system: MOLT-4 leukemia
SF-268 CNS = system: SF-268 CNS
BT-549 breast = system: BT-549 breast
HCT-15 colon = system: HCT-15 colon
T-47D breast = system: T-47D breast
DU-145 prostate = system: DU-145 prostate

SMILES: CC(=O)OC1CCC2(C)C(=CCC3C4CCC5(OC6CC(C)CN(C(C)=O)C6C5C)C(C)=C4C(=O)C32)C1 (centres undefined)
- TGI (HS 578T breast): 31.4 µM
- TGI (ACHN renal): 67 µM
- TGI (A498 renal): 31.2 µM
- TGI (HOP-62 NSCLC): 46.4 µM
- TGI (CAKI-1 renal): 75.1 µM
- TGI (KM12 colon): 37.6 µM
- TGI (RXF 393 renal): 32.2 µM
- TGI (NCI-H226 lung): 45.8 µM
- TGI (UACC-257 melanoma): 27.3 µM
- TGI (MDA-N): 48.6 µM
- TGI (NCI-H460 lung): 35.1 µM
- TGI (M14 melanoma): 28.9 µM
- TGI (U251 CNS): 30.8 µM
- TGI (MDA-MB-435): 32 µM
- TGI (HCC-2998 colon): 28.8 µM
- TGI (HCT-116 colon): 36.7 µM
- TGI (HT29 colon): 43.8 µM
- TGI (SNB-75 CNS): 41.5 µM
- TGI (K-562 leukemia): 52.7 µM
- TGI (UO-31 renal): 81.4 µM
- TGI (LOX IMVI melanoma): 24.4 µM
- TGI (HL-60(TB) leukemia): > 100 µM
- TGI (MDA-MB-231 breast): 33.3 µM
- TGI (MCF7 breast): 26.4 µM
- TGI (TK-10 renal): 56.7 µM
- TGI (SK-OV-3 ovarian): 66.8 µM
- TGI (OVCAR-4 ovarian): 61.4 µM
- TGI (OVCAR-5 ovarian): 46.6 µM
- TGI (SN12C renal): 46.5 µM
- TGI (EKVX NSCLC): 27.5 µM
- TGI (IGROV1 ovarian): 29.1 µM
- TGI (MALME-3M melanoma): 29.9 µM
- TGI (SW-620 colon): > 100 µM
- TGI (SR leukemia): 40.8 µM
- TGI (A549 NSCLC): 47.7 µM
- TGI (SK-MEL-2 melanoma): 31.9 µM
- TGI (CCRF-CEM leukemia): > 100 µM
- TGI (SF-295 CNS): 42 µM
- TGI (COLO 205 colon): 32.4 µM
- TGI (NCI-H522 lung): 29.4 µM
- TGI (PC-3 prostate): 28.6 µM
- TGI (SK-MEL-28 melanoma): > 100 µM
- TGI (786-0 renal): 72.6 µM
- TGI (SK-MEL-5 melanoma): 21.9 µM
- TGI (SNB-19 CNS): 32.7 µM
- TGI (HOP-92 NSCLC): 28.9 µM
- TGI (SF-539 CNS): 39.9 µM
- TGI (NCI/ADR-RES ovarian): 49.5 µM
- TGI (OVCAR-8 ovarian): 46.1 µM
- TGI (RPMI-8226 leukemia): 37.6 µM
- TGI (NCI-H23 lung): 29.6 µM
- TGI (UACC-62 melanoma): 18.5 µM
- TGI (OVCAR-3 ovarian): 72.6 µM
- TGI (MOLT-4 leukemia): 23.6 µM
- TGI (SF-268 CNS): 31.4 µM
- TGI (BT-549 breast): 28.6 µM
- TGI (HCT-15 colon): 33.6 µM
- TGI (T-47D breast): 49 µM
- TGI (DU-145 prostate): > 100 µM
